Results taken from patent US6949533B2, “6,7-Oxygenated steroids and uses related thereto” (Inflazyme Pharmaceuticals Ltd., priority 1996, dated 2005).
Where two headings read alike, the source gives them in different places.

Columns and labels:
[1] = tested on: passively sensitized rat mast cells (RBL-2H3); test: antigen-induced release of hexosaminidase from RBL-2H3 cells; assay type: cell-based; settings: for inhibition at 25 µM: Rattus norvegicus
Protocol: (§1) The anti-allergic effects of various polyhydroxylated steroids of the present invention were evaluated by measuring their effect on antigen-induced secretion of hexosaminidase from a passively sensitized rat mast cell line (RBL-2H3) and a murine mast cell line (MC/9). The ability of agents to inhibit the release of mast cell granule contents, e.g., histamine and hexosaminidase, is indicative of anti-allergy and/or anti-asthma activity.
(§2) Hexosaminidase is released from the mast cell granule along with histamine and other mediators during antigen challenge. RBL-2H3 and MC/9 cells were grown in culture and passively sensitized to dinitrophenol (DNP) using anti-human-DNP (IgE). Cells were incubated with each compound (25 μM) for 1 hour at 37° C. and then stimulated with 0.1 mg/ml DNP-HSA (antigen) for 15 min. Aliquots of the supernatant were removed and used to measure the amount of hexosaminidase released during challenge with the antigen. The amount of hexosaminidase present in the supernatant was determined calorimetrically by monitoring the enzymatic metabolism of p-nitrophenyl-N-acetyl-β-D-glucosaminide (p-NAG) over a period of 1 hour at 410 nm. The effect of each compound was determined as a percentage of the antigen-induced response (minus background release) obtained in the presence of DMSO alone, as set forth in Tables 2 and 3. These values were used to determine the degrees of inhibition of antigen-induced hexosaminidase release from the cells.

mouse mast cells (MC/9) = test: antigen-induced release of hexosaminidase from MC/9 cells; assay type: cell-based; settings: for inhibition at 25 µM: Mus musculus, MC9, 25 μM compound, read-out: Percentage Inhibition (mean) MC/9 cells
Protocol: as §1, §2

guinea pig ileum = test: antigen-induced contraction of ileum from sensitized guinea pigs; settings: Cavia porcellus, read-out: Percentage Inhibition, 30 μM compound, n = 3-4
Protocol: The ability of compounds to inhibit allergen-induced contraction of ileum from sensitized animals is indicative of antiallergic activity. Sensitized guinea pig ileum is particularly useful in measuring the immediate allergic response.
The guinea pig ileum has been used to evaluate the ability of compounds to inhibit allergan-induced histamine and mediator release causing smooth muscle contraction. Guinea pigs were sensitized by an intraperitoneal injection of 100 mg ovalbumin and an intramuscular injection of 50 mg ovalbumin on day 0, followed by a second intramuscular injection of 50 mg ovalbumin on day 1. […] Segments of ileum were prepared and suspended, with muscle contractions being measured in the longitudinal plane, in Tyrode's buffer at 37° C. and aerated with 5% CO2 in O2. Tissues were suspended under a resting tension of 2 grams and isometric contractions were measured using force-displacement transducers coupled to a polygraph. Tissues were stimulated with 3 μM histamine 3 times to ensure reproducible contractions were obtained. Tissues were then incubated with each compound (30 μM) or 0.15% dimethylsulphoxide (DMSO) as a control, for 20 min, after which time the tissues were challenged with 100 μg/ml ovalbumin. The magnitude of the contraction induced by OA in the presence of each compound was expressed as a percentage of the contraction obtained to 3 μM histamine. The protective effects of the various compounds on OA-induced contraction of guinea pig ileum from sensitized animals are summarized in Table 4.

isolated trachea = tested on: isolated trachea; design: species or system guinea pig; settings: compound 20 μM, study 2
Protocol: The effects of a number of the compounds described herein on allergen-induced bronchoconstriction were evaluated for anti-asthma activity. The ability of a compound to inhibit allergen-induced decreases in lung function in sensitized guinea pigs in response to antigen-challenge is indicative of anti-asthma activity. In particular, the model system is useful in the evaluation of the potential effects of a compound in the treatment of the early asthmatic reaction (EAR) when severe bronchoconstriction occurs.
Guinea pigs were exposed to a nebulized solution of 1% ovalbumin (OA) in saline for 15 min. […] Tracheal rings were prepared and bathed in Krebs-Henseleit solution at 37° C. and aerated with 5% CO2 in […]. Tissues were suspended under a resting tension of 2 g and isometric contractions were measured using force-displacement transducers coupled to a polygraph. Tissues were incubated with each compound or 0.1% dimethylsulfoxide (as a control) for 20 min, after which increasing concentrations of OA (0.001-100 μg/ml) were added to the tissue. After the final concentration of OA was added and the response was recorded, the tissues were stimulated with 100 μM methacholine which caused maximum contraction of the trachea. The magnitude of the contraction induced by OA in the presence of each compound was expressed as a percentage of the maximum contraction obtained using methacholine (100 μM).

sensitized guinea pigs = test: allergen-induced changes in lung resistance and compliance in vivo; design: species or system guinea pig; settings: 5 mg/kg/day for 4 days p.o.
Protocol: Female Cam Hartley guinea pigs (350-400 g) are sensitized to ovalbumin by exposure of the guinea pigs to a nebulized solution of 1% ovalbumin in saline for 15 minutes. After 10-12 days, the animals are found to be acutely sensitized to the allergen (ovalbumin). Animals are treated by oral gavage, under light halothane anesthesia, with 300 μl polyethyleneglycol-200 (PEG) or 5 mg/Kg of test compound in 300 μl of PEG. Animals are treated once daily for 4 days with the final dose administered 2 hours prior to allergen challenge. Alternatively, compounds were delivered by inhalation, using a Hudson nebulizer driven by 6 psi oxygen, providing a single dose of 50 μg/Kg 20 min prior to challenge.
An animal is anaesthetized using ketamine ([…]; i.p.) and xylazine (10 mg/Kg; i.p.) and 1% halothane during the surgical procedure. A tracheostomy is performed and a water-filled esophageal cannula is inserted prior to positioning the animal in a body plethysmograph. The tracheal cannula is attached to a fixed tracheal cannula in the plethysmograph. Cardiac function is monitored using electrocardiography. The animal is paralyzed using pancuronium bromide (0.8 mg/Kg; i.m.) and ventilated with 3 ml tidal breaths using a Harvard small animal ventilator, at a frequency of 60 breaths per minute. Pulmonary resistance and dynamic lung compliance data are obtained from volume, flow and transpulmonary pressure signals using multipoint analysis.
Pulmonary function is continually monitored throughout the experiment and measurements of lung resistance and lung compliance are made at various time-points (e.g., 0, 1, 2, 3, 4, 5, 10, 20 and 30 min) following antigen challenge. Data is collected on a computer-linked physiological measurement system using DIREC Physiological recording software and analyzed using ANADAT software designed for lung mechanics measurements. This software was obtained from RHT-InfoDat Inc., Montreal, Quebec, Canada.
Once baseline resistance and compliance measurements are obtained, the animal is challenged with 6 breaths of saline. After 10 minutes, during which time no alterations in lung function should occur, the animal is challenged with 6 breaths of 2 or 3% ovalbumin in saline (as the antigen stimulus). Saline and antigen are delivered in each breath using a Hudson nebulizer.

[2] = RBL-2H3, 25 μM compound, antigen-induced hexosaminidase release, read-out: Percentage Inhibition (mean) RBL-2H3 Cells
[3] = RBL-2H3, read-out: Percentage Inhibition (mean) RBL-2H3 Cells

Structure (SMILES) | inhibition at 25 µM [1, 2] [%] | inhibition at 25 µM (mouse mast cells (MC/9)) [%] | inhibition at 30 µM (guinea pig ileum) [%] | further results
C[C@H]1CCC2C3C(CC[C@@]21C)[C@@]1(C)CC[C@H](O)CC1[C@@H](O)[C@@H]3O (stereo partly drawn) [Compound 343] | 52 | 40 | 48.9 | 
C[C@]12CC[C@@H](O)C[C@@H]1[C@@H](O)[C@H](O)[C@@H]1[C@@H]2CC[C@]2(C)[C@@H](O)CC[C@@H]12 [Compound 327] |  |  |  | inhibition at 25 µM [1, 3]: 35.2%; percentage contraction compared to 100 μM methacholine (isolated trachea; OA 0.01 μg/ml): 0%; percentage contraction compared to 100 μM methacholine (isolated trachea; OA 0.1 μg/ml): 0%
C[C@]12CC[C@@H](O)[C@H](O)[C@@H]1[C@@H](O)[C@H](O)[C@@H]1[C@@H]2CC[C@]2(C)[C@@H](O)CC[C@@H]12 [Compound 241, 3α,4β,6α,7β,17β-pentahydroxy-5α-androstane] |  |  |  | inhibition at 25 µM [1, 3]: 22%
C/C=C1/CCC2C3CCC4C[C@@H](O)CC[C@]4(C)C3CC[C@]12C (stereo partly drawn) [Compound 251] |  |  | -10.5 | 
C/C=C1/CCC2C3C(CC[C@]12C)[C@@]1(C)CC[C@@H](Cl)CC1[C@@H](O)[C@@H]3O (stereo partly drawn) [Compound 337] | 44 | 56 | 50.7 | 
C/C=C1/CCC2C3C(CC[C@]12C)[C@@]1(C)CCCCC1[C@@H](O)[C@@H]3O (stereo partly drawn) [Compound 346] | 16 | 61 | 62.5 | 
C[C@]12CC[C@H]3O[C@H]3[C@@H]1[C@@H](O)[C@H](O)[C@@H]1[C@@H]2CC[C@]2(C)[C@@H](O)CC[C@@H]12 [Compound 239, 3α,4α-epoxy-6α,7β,17β-trihydroxy-5α-androstane] |  |  |  | inhibition at 25 µM [1, 3]: 9.6%
C/C=C1/CCC2C3C(CC[C@]12C)[C@@]1(C)CC[C@@H](Cl)CC1[C@H]1OC(C)(C)O[C@H]31 (stereo partly drawn) [Compound 336] |  |  | 79.3 | 
CC(=O)O[C@@H]1C2C(CC[C@@]3(C)C2CCC32OCCO2)[C@@]2(C)CC[C@H](O)CC2[C@H]1OC(C)=O (stereo partly drawn) [Compound 322] | 25.6 |  |  | 
CC(C)(C)[Si](C)(C)OC1CC[C@]2(C)C3CC[C@@]4(C)C(CCC45OCCO5)C3[C@@H](O)[C@H](O)C2C1 (stereo partly drawn) [Compound 221] |  |  | 60.7 | 
C=C1CCC2C3C(CC[C@]12C)[C@@]1(C)CC[C@H](O)CC1[C@@H](O)[C@@H]3O (stereo partly drawn) [Compound 342] | 57 | 39 | 28.3 | Lung Compliance (sensitized guinea pigs; 1 min after challenge): 0.154 ± 0.055 ml/cm H2O; Lung Resistance (sensitized guinea pigs; 1 min after challenge): 0.453 ± 0.120 cm H2O/ml/sec; Lung Compliance (sensitized guinea pigs; 2 min after challenge): 0.073 ± 0.038 ml/cm H2O; Lung Resistance (sensitized guinea pigs; 2 min after challenge): 1.786 ± 0.82 cm H2O/ml/sec; Lung Compliance (sensitized guinea pigs; 3 min after challenge): 0.044 ± 0.022 ml/cm H2O; Lung Resistance (sensitized guinea pigs; 3 min after challenge): 1.930 ± 0.55 cm H2O/ml/sec; Lung Compliance (sensitized guinea pigs; 4 min after challenge): 0.044 ± 0.022 ml/cm H2O; Lung Resistance (sensitized guinea pigs; 4 min after challenge): 1.621 ± 0.36 cm H2O/ml/sec; Lung Compliance (sensitized guinea pigs; 5 min after challenge): 0.038 ± 0.015 ml/cm H2O; Lung Resistance (sensitized guinea pigs; 5 min after challenge): 1.4816 ± 0.32 cm H2O/ml/sec; Lung Compliance (sensitized guinea pigs; 10 min after challenge): 0.048 ± 0.005 ml/cm H2O; Lung Resistance (sensitized guinea pigs; 10 min after challenge): 1.002 ± 0.14 cm H2O/ml/sec; Lung Compliance (sensitized guinea pigs; 20 min after challenge): 0.084 ± 0.005 ml/cm H2O; Lung Resistance (sensitized guinea pigs; 20 min after challenge): 0.524 ± 0.08 cm H2O/ml/sec; Lung Compliance (sensitized guinea pigs; 30 min after challenge): 0.109 ± 0.006 ml/cm H2O; Lung Resistance (sensitized guinea pigs; 30 min after challenge): 0.354 ± 0.04 cm H2O/ml/sec; Lung Compliance (sensitized guinea pigs; Baseline): 0.444 ± 0.037 ml/cm H2O; Lung Resistance (sensitized guinea pigs; Baseline): 0.212 ± 0.020 cm H2O/ml/sec; Lung Compliance (sensitized guinea pigs; OA/10 s): 0.464 ± 0.031 ml/cm H2O; Lung Resistance (sensitized guinea pigs; OA/10 s): 0.223 ± 0.020 cm H2O/ml/sec
CC(C)CCCC(C)C1CCC2C3C(O)C(O)C4CC(O)CCC4(C)C3CCC12C (stereo not drawn) [Compound 354] |  |  |  | Percentage Inhibition (mean) RBL-2H3 Cells ([1]; 25 μM compound, antigen-induced hexosaminidase release): 30%; Percentage Inhibition (mean) MC/9 cells (mouse mast cells (MC/9); 25 μM compound): 76%
C/C=C1/CCC2C3C(CC[C@]12C)[C@@]1(C)CC[C@@H](O)CC1[C@H]1OC(C)(C)O[C@H]31 (stereo partly drawn) [Compound 338] |  |  | 64 | 
CC(C)[C@H]1CC(=O)OC([C@@H](C)C2CC(=O)C3C4CCC5C[C@@H](O)CC[C@]5(C)C4CC[C@@]32C)C1 (stereo partly drawn) [Compound 266] | -12.5 |  | 17.4 | 
CC[C@H]1CCC2C3C(CC[C@@]21C)[C@@]1(C)C[C@@H](O)C(O)CC1[C@@H](O)[C@@H]3O (stereo partly drawn) [Compound 360] | 76 |  | 50.5 | 
C[C@@]12CCCC1C1C(CC2)[C@@]2(C)CC[C@H](O)CC2[C@@H](O)[C@@H]1O (stereo partly drawn) [Compound 351] | 33.6 |  | 43.6 | 
CC1(C)O[C@@H]2C3C(CC[C@]4(C)C(=O)CCC34)[C@@]3(C)CC[C@H](O)CC3[C@H]2O1 (stereo partly drawn) [Compound 331] |  | 5 | 14.5 | 
CC(C)C1CC(O)OC(C(C)C2CCC3C4C(CC[C@]23C)[C@@]2(C)CC[C@@H](O)CC2[C@@H](O)[C@@H]4O)C1 (stereo partly drawn) [Compound 306, 22,29-epoxy-3,6,7,29-tetrahydroxystigmastanol] | 40.5 |  |  | 
C/C=C1/CCC2C3C(CC[C@]12C)[C@@]1(C)CCC(=O)CC1[C@@H](O)[C@@H]3O (stereo partly drawn) [Compound 335] | 56 | 69 | 30.7 | 
C[C@]12CC[C@H](O)CC1[C@@H](O)[C@H](O)C1C2CC[C@@]2(C)C1CCC21OCCO1 (stereo partly drawn) [Compound 328] | 34.3 |  |  | 
CC[C@H]1CCC2C3C(CC[C@@]21C)[C@@]1(C)CC[C@@H](O)CC1[C@H]1OC(C)(C)O[C@H]31 (stereo partly drawn) [Compound 361] |  | 13 | 55 | 
C[C@]12CC[C@@H](O)C[C@@H]1[C@@H](O)[C@H](O)[C@@H]1[C@@H]2CC[C@]2(C)C(=O)CC[C@@H]12 [Compound 326] |  |  |  | percentage contraction compared to 100 μM methacholine (isolated trachea; OA 0.01 μg/ml): 0%
